Assay results reported in PubChem BioAssay (NCI).
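In this assay, cells in 96-well plates receive the compound at five concentrations for 48 hours. Endpoints are linearly interpolated between the surrounding concentrations. GI50 = concentration required for 50% inhibition of growth. TGI denotes the concentration required for complete inhibition of growth.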

Legend:
Experiment in all cases: inhibition of tumour cell growth, NCI panel, 48 h
COLO 205 colon = system: COLO 205 colon
MALME-3M melanoma = system: MALME-3M melanoma
MOLT-4 leukemia = system: MOLT-4 leukemia
SF-268 CNS = system: SF-268 CNS
TK-10 renal = system: TK-10 renal
HCT-116 colon = system: HCT-116 colon
NCI-H522 lung = system: NCI-H522 lung
NCI-H23 lung = system: NCI-H23 lung
HCC-2998 colon = system: HCC-2998 colon
EKVX NSCLC = system: EKVX NSCLC

SMILES	TGI (COLO 205 colon) [µM]	TGI (MALME-3M melanoma) [µM]	TGI (MOLT-4 leukemia) [µM]	TGI (SF-268 CNS) [µM]	TGI (TK-10 renal) [µM]	TGI (HCT-116 colon) [µM]	TGI (NCI-H522 lung) [µM]	TGI (NCI-H23 lung) [µM]	TGI (HCC-2998 colon) [µM]	TGI (EKVX NSCLC) [µM]	GI50 (MALME-3M melanoma) [µM]	GI50 (MOLT-4 leukemia) [µM]	GI50 (SF-268 CNS) [µM]	GI50 (TK-10 renal) [µM]	GI50 (HCT-116 colon) [µM]	GI50 (NCI-H522 lung) [µM]	GI50 (NCI-H23 lung) [µM]	GI50 (HCC-2998 colon) [µM]	GI50 (EKVX NSCLC) [µM]	GI50 (COLO 205 colon) [µM]
COc1cc(OC)c(/C=C\c2ccnc3ccccc23)c(OC)c1	8.2	16.5	11.8	22.8	17.8	13.3	18	22.1	23.9	17.7	–	–	–	–	–	–	–	–	–	–
CC(=O)c1ccc(OCC(O)CO)cc1 (stereo not drawn)	> 100	> 100	> 100	> 100	> 100	33.5	> 100	> 100	> 100	> 100	–	–	–	–	–	–	–	–	–	–
CCCCCCCCN(CCCCCCCC)CCCCCCNc1cc(OC)cc2cccnc12	–	21.9	42.9	30	36	6.49	4.78	6.2	26.2	24	6.92	16.3	12.7	20.3	2.37	1.9	2.42	13.1	6.82	–
COc1cc2nc(SCC(=O)Nc3cc(OC)c(OC)c(OC)c3)n(Cc3ccccc3)c(=O)c2cc1OC	33	> 100	> 100	23.2	21.5	78.9	32.4	50.3	> 100	31.1	3.3	> 100	3.57	4.06	6.74	3.65	4.17	50.6	5.12	15.3
CCN1C(=O)N(CC)C2Nn3c(s/c(=C\c4ccccc4Br)c3=O)=NC21 (stereo not drawn)	–	78.1	23.2	29	> 100	> 100	4.15	> 100	–	> 100	8.08	2.28	2.54	9.34	0.497	1.26	2.7	2.4	2.3	–
COc1ccc(C(SCC(N)C(=O)O)(c2ccccc2)c2ccccc2)cc1 (stereo not drawn)	15.8	> 100	> 100	71.5	> 100	25.8	> 100	> 87.4	12.2	> 100	> 43	0.439	0.0877	20.6	0.043	0.104	0.414	0.246	0.436	0.3
O=C1c2ccccc2S(=O)(=O)N1CSC(=S)N1CCCCC1	> 100	> 100	–	> 100	> 100	> 100	> 100	> 100	> 100	> 100	> 100	–	> 100	> 100	> 100	2.05	> 100	> 100	> 100	> 100
NC1CCC(Nc2nc(NCc3ccc(-c4cccs4)nc3)c3ncn(C4CCCC4)c3n2)CC1 (stereo not drawn)	0.035	0.523	0.502	1.08	2.69	1.15	0.049	0.319	0.49	0.762	0.122	0.025	0.0188	0.166	0.0332	< 0.016	0.0383	0.0307	0.0426	0.0169
CN(Cc1cc(Br)cc(Br)c1O)Cc1cc(Br)cc(Br)c1O	15.2	22	36.3	21.1	20.4	12.3	7.14	22.3	17	20.2	3.51	3.31	2.87	4.26	0.812	1.73	3.28	3.5	3.03	3.72
Clc1ccc2c(c1)N(c1ncnc3ccc(-c4cnc5[nH]ccc5c4)cc13)CC2	> 100	19.5	> 100	24.1	14.5	14.7	12.5	52.4	68.9	34.4	1.08	0.954	3.14	1.29	1.36	0.819	3.2	11.3	0.789	3.21
O=[N+]([O-])c1ccc(Sc2ncnc3nc[nH]c23)c2nonc12	4.67	> 100	15.7	19.7	23.7	12.9	2.71	23.6	27.6	36.5	13.1	2.07	5	2.34	2.59	1.39	10.3	4.6	18.1	2.17
COC(=O)C(CC(C)C)NC(=O)NC12CC3CC(CC(F)(C3)C1)C2 (stereo not drawn)	> 100	> 100	> 100	–	> 100	> 100	> 100	> 100	> 100	> 100	–	–	–	–	–	–	–	–	–	–
CCOC(=O)CSC(=O)NCCCl	> 100	> 100	> 100	> 100	> 100	> 100	> 100	> 100	> 100	> 100	–	> 100	–	–	–	–	–	–	–	–
CCOC(=O)n1cc(C2=C(c3cn(C)c4ccccc34)COC2=O)c2ccccc21	2.41	> 100	> 48.4	62.9	31	16.8	1.02	35.5	> 100	> 100	0.0508	0.38	1.02	10	0.0515	0.0278	0.436	0.167	0.177	0.241
